# Assays:
# [1] = system: mouse model of BLM-induced lung injury; assay: Histopathological evaluation of lung sections, H&E staining; type: in vivo; details: Effect example 4; mice; S15 30, 60, 90 mg/kg, Nintedanib 30 mg/kg, oral qd 12 days
# Description: Experimental objective: This group of experiments aimed to investigate the therapeutic potential of the compound S15 in acute lung injury and inflammation induced by bleomycin (BLM).
# Experimental grouping (8 mice per group):
# Model group (BLM): the mice received BLM (1.7 U/kg) via intratracheal instillation;
# Compound S15 group (S15): this group was divided into three dose groups, namely 30, 60 and 90 mg/kg;
# Positive control group (Nintedanib): Nintedanib administration group;
# Negative control group (Control): only saline was used.
# 1) Material acquisition: The fresh tissue was fixed in 4% paraformaldehyde for more than 24 hours. The tissue was removed from the fixative solution and trim the tissue at the target site. The trimmed tissue was marked and placed in the dehydration box for later use.
# 2) Dehydration: The dehydration box was put in the dehydrator and different concentration gradients of ethanol was used sequentially for dehydration. 75% ethanol (4 hours), 85% ethanol (2 hours), 90% ethanol (2 hours), 95% ethanol (1 hour), absolute ethanol I (30 minutes), absolute ethanol II (30 minutes), alcohol benzene (5-10 minutes), xylene I (5-10 minutes), xylene II (5-10 minutes), wax I (1 hour), wax II (1 hour), wax III (1 hour).
# 3) Embedment: The wax melted at high temperature was put into the embedding frame; before the wax was cooled and solidified, the tissue was taken out of the dehydration box, put into the embedding frame according to the requirements of the embedding surface, marked and cooled at −20° C. After completely solidified, the wax block was removed from the embedding frame and trimmed.
# 4) Section: The trimmed wax block was put on a paraffin microtome for sectioning. The section thickness was about 4 μm. The sections were floated on warm water at 40° C. of the flotation workstation and flatten. A glass slide was used to lift the tissue from the warm water, and put into a 60° C. oven for dryness. After the water was dried and the wax melted, the glass slide was taken out and stored at ambient temperature for later use. […]
# ERK1/2, Akt and p38 = assay: Phosphorylation level of downstream mediators of TGF-β (Western Blot); type: cell-based, human; details: MRC-5, TGF-β1 treatment
# Description: 1) Preparation of cell protein samples: the cell culture liquid was discarded, wash was performed once with PBS, and samples were collected by adding 1×SDS-Loading. after the samples were collected, they were placed in a metal bath at 100° C., and the samples were boiled for 10 minutes, and then the samples were stored at 4° C. for waiting for subsequent test.
# 2) Gel preparation and sample loading: according to the molecular weight of the detected protein, different concentrations of separation gel were selected. after filling the 1× electrophoresis buffer, an equal volume of protein sample 4 μl and protein marker were added on the far left to right in sequence. […]
# 8) Secondary antibodies: the film with the primary antibodies was rewarmed and incubated for about half an hour, and then the primary antibodies were recovered and the film was washed quickly with TBST solution 3 times, 10 minutes each time. […] The dilution ratio of the secondary antibody dedicated for DDR2 was 1:5000; The dilution ratio for the rest of the secondary antibodies were 1:8000, ready for use. […]
# In addition, the phosphorylation level of the main downstream mediators of TGF-β was analyzed by Western Blot. […]
smiles,measurement,setting,value
"O=C(Nc1cccc(C(F)(F)F)c1)c1ccc(C2CC2)c(-c2ccc3nc(Nc4cnn(C5CC5)c4)ncc3c2)c1 [Compound S15, 4-cyclopropyl-3-(2-((1-cyclopropyl-1H-pyrazol-4-yl)amino)quinazolin-6-yl)-N-(3-(trifluoromethyl)phenyl)benzamide]","BLM-induced lung injury, H&E staining",[1],improved significantly
same,"phosphorylation level of downstream ERK1/2, Akt and p38","ERK1/2, Akt and p38","significantly inhibit the phosphorylation level of downstream ERK1/2, Akt and p38"

# — patent US11655239B2 (SHANGHAI INSTITUTE OF MATERIAL MEDICA, CHINESE ACADEMY OF …, priority 2019, dated 2023)
